The record followed here is US12186359B2, “Composition containing branched-chain amino acids” (priority 2019, dated 2025).

The conditions of the data set: mouse, in vivo.

Peptide text beside a SMILES is read from it.

Procedure: The aim of the study was to compare the exposure of L-Leucine-13C6, 15N, L-Isoleucine-13C6, 15N, L-Valine-13C5, 15N in plasma after their administration alone or in association with L-Alanine or L-Alanyl-L-alanine in the mouse. Plasma samples were analyzed by dean-up and derivatization using the EZfaast™ amino acid analysis kit (Phenomenex) and analyzed by UPLC-MSMS.
CD1 mouse with body weights of 25-30 gr at the time of the treatment were used in this study, approximate age was about 4 weeks according to growth curve. The animals were originally supplied by Harlan, Italy. Once receipt from the supplier, the animals were subjected to health examinations and acceptance. The animals were housed, in a group of five, in cages suitable for the species. The animals were acclimatized to local housing conditions for approximately 5 days. The animals were routinely kept in the following environment except for short periods of time where experimental procedures dictated otherwise. The animals were housed in a single, exclusive room, air conditioned to provide a minimum of 15 air changes/hour. […] Clinical signs were monitored at regular intervals throughout the study in order to assess any reaction to treatment. […]

As to `C[C@H](N)C(=O)N[C@@H](C)C(=O)O` [L-Alanyl-L-alanine] (H-Ala-Ala-OH), the “Plasma concentrations of the labelled amino acids (AUC0-24 h), rank among groups” value is recorded as “highest concentrations”.
